Assay results as given in PubChem BioAssay (NCI).
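Values below derive from 48-hour exposures of cells grown in 96-well plates, with endpoints linearly interpolated between the two concentrations bracketing the appropriate inhibition level. Definition used: TGI = concentration required for complete inhibition of growth.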

Columns and labels:
Test in all cases: DTP human tumour cell line panel, 48 h
786-0 renal = test system: 786-0 renal
SNB-19 CNS = test system: SNB-19 CNS
TK-10 renal = test system: TK-10 renal
SF-268 CNS = test system: SF-268 CNS
LOX IMVI melanoma = test system: LOX IMVI melanoma
A498 renal = test system: A498 renal
UACC-257 melanoma = test system: UACC-257 melanoma
PC-3 prostate = test system: PC-3 prostate
SK-MEL-28 melanoma = test system: SK-MEL-28 melanoma
SF-539 CNS = test system: SF-539 CNS

| Structure (SMILES) | TGI (786-0 renal) [µM] | TGI (SNB-19 CNS) [µM] | TGI (TK-10 renal) [µM] | TGI (SF-268 CNS) [µM] | TGI (LOX IMVI melanoma) [µM] | TGI (A498 renal) [µM] | TGI (UACC-257 melanoma) [µM] | TGI (PC-3 prostate) [µM] | TGI (SK-MEL-28 melanoma) [µM] | TGI (SF-539 CNS) [µM] |
| --- | --- | --- | --- | --- | --- | --- | --- | --- | --- | --- |
| N=C(c1cccs1)C1(N2CCCCC2)CCCCC1 | > 100 | 34.8 | 35.7 | 50.8 | 47.9 | 34 | 31.8 | 81.8 | – | – |
| CC(/C=N/NC1=NCCCN1)=N\NC1=NCCCN1 | > 100 | > 100 | > 100 | > 100 | > 100 | – | > 100 | > 100 | > 100 | > 100 |
| CC(=O)O[C@H]1CC[C@H]2[C@@H]3CCC(C(C)=O)[C@H](C(=O)O)[C@H]3CC[C@]12C (some centres not stated) | – | > 100 | > 100 | > 100 | – | > 100 | > 100 | > 100 | > 100 | > 100 |
| CCCCNC(=S)Nc1nc(C(=O)NNC(=O)c2ccccc2)cs1 | 35.2 | – | 60.6 | > 100 | 21.7 | 79.3 | 37 | 39.7 | – | – |
| O=C1N[C@@H](COc2ccc(C=Nc3ccc(CCc4ccc(N=Cc5ccc(OC[C@@H]6COC(=O)N6)cc5)cc4)cc3)cc2)CO1 | > 100 | > 100 | > 100 | > 100 | > 100 | > 100 | > 100 | > 100 | > 100 | – |
| CCOP(=O)(OCC)C(C)(C)OC(=O)NC#N | > 100 | > 100 | > 100 | > 100 | > 100 | – | > 100 | > 100 | > 100 | > 100 |
| O=C(O)CC(O)(C(=O)O)C(O)C(=O)O (configuration not stated) | > 1000 | > 1000 | > 1000 | > 1000 | > 1000 | – | > 1000 | > 1000 | > 1000 | > 1000 |
| O=C(Oc1cccc(Cl)c1)c1cc2cc(CCl)ccc2oc1=O | > 100 | > 100 | > 100 | > 100 | > 100 | – | 31.3 | > 100 | > 100 | > 100 |
| COC(=O)C(Cc1nc2ccccc2[nH]c1=O)C(=O)C(=O)Nc1cc(C(F)(F)F)ccc1Cl (configuration not stated) | 25.2 | – | 44 | 36.4 | 31.5 | > 100 | > 100 | 34.4 | > 100 | – |
| C=CCN1CCC2(CC1)NC(=O)c1ccccc1O2 | > 100 | > 100 | > 100 | > 100 | > 100 | – | > 100 | > 100 | > 100 | > 100 |
| CCN(CC)CCC(=O)c1ccc(Oc2ccc(F)cc2)cc1 | 28 | 33.6 | 31.7 | 35.5 | 28.8 | – | 34 | 71.9 | 30.2 | 31.8 |
| CN(C)c1ccc(/C=c2/c3cc([N+](=O)[O-])ccc3n3c2cc(-c2ccccc2)[n+]3C)cc1 | 10.3 | 3.84 | 9.32 | 2.86 | – | 7.94 | – | 7.27 | 3.09 | 3.6 |
